The text below walks through data of patent US20230355626A1, “INHIBITORS OF HUMAN IMMUNODEFICIENCY VIRUS REPLICATION” (VIIV HEALTHCARE UK (NO.5) LIMITED, priority 2020, published 2023).

pEC50: −log10 of the molar value. Some results are limits rather than exact numbers.

One series has as its system recombinant NL4-3 virus. Put plainly: HIV cell culture assay (antiviral activity, luciferase readout in infected MT-2 cells). It is filed as cell-based. The note with it: Human immunodeficiency virus 1, NL43, MT2. In short, it runs like this:
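MT-2 cells infected for 4-5 days with 293T-derived NL4-3 reporter virus (nef partly replaced by Renilla luciferase) in serial compound dilutions. Live-cell luciferase read-out. EC50 from median effect equation fit.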

A short description of series [1]: Compound cytotoxicity, XTT-based colorimetric assay. Particulars: human; uninfected MT2 cells, day 4, XTT assay. It is filed as cell-based. In short, it runs like this: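 CC50 derived from XTT colorimetric signal measured on day 4 in MT2 cells that were not infected. All other steps followed the antiviral assay protocol.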
In general terms: Tetrazolium assays rely on reduction of a dye to a coloured formazan, in cell work by metabolically active cells.

Usually pEC50 stands for the negative decadic logarithm of the EC50, by convention in mol/L. As a reminder, the CC50 is the concentration giving 50% cytotoxicity. Take `Cn1nc(NS(C)(=O)=O)c2c(Cl)ccc(-n3c([C@H](Cc4cc(F)cc(F)c4)NC(=O)Cn4nc(C(F)F)c5c4C(F)(F)[C@@H]4C[C@H]54)nc4nc(OCc5nc(C(F)(F)F)cs5)ccc4c3=O)c21` (atropisomer, axis not shown; (P)) [Example 23, N-((S)-1-((3P)-3-(4-chloro-1-methyl-3-(methylsulfonamido)-1H-indazol-7-yl)-4-oxo-7-((4-(trifluoromethyl)thiazol-2-yl)methoxy)-3,4-dihydropyrido[2,3-d]pyrimidin-2-yl)-2-(3,5-difluorophenyl)ethyl)-2-((3bS,4aR)-3-(difluoromethyl)-5,5-difluoro-3b,4,4a,5-tetrahydro-1H-cyclopropa[3,4]cyclopenta[1,2-c]pyrazol-1-yl)acetamide]: in the series with recombinant NL4-3 virus, the pEC50 is 10.00. In addition, the CC50 at 4 day in series [1] was more than 100 nM.

For `Cn1nc(NS(C)(=O)=O)c2c(Cl)ccc(-n3c([C@H](Cc4cc(F)cc(F)c4)NC(=O)Cn4nc(C(F)F)c5c4C(F)(F)[C@@H]4C[C@H]54)nc4nc(OCc5ccn(CC(F)(F)F)n5)ccc4c3=O)c21` (atropisomer, axis not shown; (P)) [Example 24, N-((S)-1-((3P)-3-(4-chloro-1-methyl-3-(methylsulfonamido)-1H-indazol-7-yl)-4-oxo-7-((1-(2,2,2-trifluoroethyl)-1H-pyrazol-3-yl)methoxy)-3,4-dihydropyrido[2,3-d]pyrimidin-2-yl)-2-(3,5-difluorophenyl)ethyl)-2-((3bS,4aR)-3-(difluoromethyl)-5,5-difluoro-3b,4,4a,5-tetrahydro-1H-cyclopropa[3,4]cyclopenta[1,2-c]pyrazol-1-yl)acetamide], the pEC50 in the series on recombinant NL4-3 virus is 10.24. The CC50 at 4 day in series [1] is more than 100 nM.

As to `Cn1nc(NS(C)(=O)=O)c2c(Cl)ccc(-n3c([C@H](Cc4cc(F)cc(F)c4)NC(=O)Cn4nc(C(F)F)c5c4C(F)(F)[C@@H]4C[C@H]54)nc4nc(OCCNCC(F)(F)F)ccc4c3=O)c21` (atropisomer, axis not shown; (P)) [Example 25, N-((S)-1-((3P)-3-(4-chloro-1-methyl-3-(methylsulfonamido)-1H-indazol-7-yl)-4-oxo-7-(2-((2,2,2-trifluoroethyl)amino)ethoxy)-3,4-dihydropyrido[2,3-d]pyrimidin-2-yl)-2-(3,5-difluorophenyl)ethyl)-2-((3bS,4aR)-3-(difluoromethyl)-5,5-difluoro-3b,4,4a,5-tetrahydro-1H-cyclopropa[3,4]cyclopenta[1,2-c]pyrazol-1-yl)acetamide], the negative-log EC50 (pEC50) in the series on recombinant NL4-3 virus is 10.24. The same compound displayed a CC50 at 4 day in series [1] of more than 100 nM.

On to `Cn1nc(NS(C)(=O)=O)c2c(Cl)ccc(-n3c([C@H](Cc4cc(F)cc(F)c4)NC(=O)Cn4nc(C(F)F)c5c4C(F)(F)[C@@H]4C[C@H]54)nc4nc(OCCOCC(F)(F)F)ccc4c3=O)c21` (atropisomer, axis not shown; (P)) [Example 26, N-((S)-1-((3P)-3-(4-chloro-1-methyl-3-(methylsulfonamido)-1H-indazol-7-yl)-4-oxo-7-(2-(2,2,2-trifluoroethoxy)ethoxy)-3,4-dihydropyrido[2,3-d]pyrimidin-2-yl)-2-(3,5-difluorophenyl)ethyl)-2-((3bS,4aR)-3-(difluoromethyl)-5,5-difluoro-3b,4,4a,5-tetrahydro-1H-cyclopropa[3,4]cyclopenta[1,2-c]pyrazol-1-yl)acetamide], for which, in the series with recombinant NL4-3 virus, the pEC50 was 10.62. The CC50 at 4 day in series [1] is more than 100 nM.

For the compound `Cn1nc(NS(C)(=O)=O)c2c(Cl)ccc(-n3c([C@H](Cc4cc(F)cc(F)c4)NC(=O)Cn4nc(C(F)F)c5c4C(F)(F)[C@@H]4C[C@H]54)nc4nc(OCC(F)(F)C(F)F)ccc4c3=O)c21` (atropisomer, axis not shown; (P)) [Example 27, N-((S)-1-((3P,3P)-3-(4-chloro-1-methyl-3-(methylsulfonamido)-1H-indazol-7-yl)-4-oxo-7-(2,2,3,3-tetrafluoropropoxy)-3,4-dihydropyrido[2,3-d]pyrimidin-2-yl)-2-(3,5-difluorophenyl)ethyl)-2-((3bS,4aR)-3-(difluoromethyl)-5,5-difluoro-3b,4,4a,5-tetrahydro-1H-cyclopropa[3,4]cyclopenta[1,2-c]pyrazol-1-yl)acetamide], in the series on recombinant NL4-3 virus, the negative-log EC50 (pEC50) was 10.66. Also, in series [1], the 50% cytotoxic concentration (CC50) at 4 day was more than 100 nM.

Consider `Cn1nc(NS(C)(=O)=O)c2c(Cl)ccc(-n3c([C@H](Cc4cc(F)cc(F)c4)NC(=O)Cn4nc(C(F)F)c5c4C(F)(F)[C@@H]4C[C@H]54)nc4nc(OCc5nccn5C(F)F)ccc4c3=O)c21` (atropisomer, axis not shown; (P)) [Example 28, N-((S)-1-((3P)-3-(4-chloro-1-methyl-3-(methylsulfonamido)-1H-indazol-7-yl)-7-((1-(difluoromethyl)-1H-imidazol-2-yl)methoxy)-4-oxo-3,4-dihydropyrido[2,3-d]pyrimidin-2-yl)-2-(3,5-difluorophenyl)ethyl)-2-((3bS,4aR)-3-(difluoromethyl)-5,5-difluoro-3b,4,4a,5-tetrahydro-1H-cyclopropa[3,4]cyclopenta[1,2-c]pyrazol-1-yl)acetamide], for which the pEC50 with recombinant NL4-3 virus is 9.06. In series [1], this compound gave a half-maximal cytotoxic concentration (CC50) at 4 day of more than 100 nM.

As for `Cn1nc(NS(C)(=O)=O)c2c(Cl)ccc(-n3c([C@H](Cc4cc(F)cc(F)c4)NC(=O)Cn4nc(C(F)F)c5c4C(F)(F)[C@@H]4C[C@H]54)nc4nc(OCCOC(F)F)ccc4c3=O)c21` (atropisomer, axis not shown; (P)) [Example 29, N-((S)-1-((3P)-3-(4-chloro-1-methyl-3-(methylsulfonamido)-1H-indazol-7-yl)-7-(2-(difluoromethoxy)ethoxy)-4-oxo-3,4-dihydropyrido[2,3-d]pyrimidin-2-yl)-2-(3,5-difluorophenyl)ethyl)-2-((3bS,4aR)-3-(difluoromethyl)-5,5-difluoro-3b,4,4a,5-tetrahydro-1H-cyclopropa[3,4]cyclopenta[1,2-c]pyrazol-1-yl)acetamide], the negative-log EC50 (pEC50) with recombinant NL4-3 virus is 10.48. Moreover, in series [1], the half-maximal cytotoxic concentration (CC50) at 4 day is more than 100 nM.

Regarding `Cn1nc(NS(C)(=O)=O)c2c(Cl)ccc(-n3c([C@H](Cc4cc(F)cc(F)c4)NC(=O)Cn4nc(C(F)F)c5c4C(F)(F)[C@@H]4C[C@H]54)nc4nc(OC5CC(F)(F)C5)ccc4c3=O)c21` (atropisomer, axis not shown; (P)) [Example 30, N-[(1S)-1-[(3P)-3-(4-chloro-3-methanesulfonamido-1-methyl-1H-indazol-7-yl)-7-(3,3-difluorocyclobutoxy)-4-oxo-3H,4H-pyrido[2,3-d]pyrimidin-2-yl]-2-(3,5-difluorophenyl)ethyl]-2-[(2S,4R)-9-(difluoromethyl)-5,5-difluoro-7,8-diazatricyclo[4.3.0.0^2,^4]nona-1(6),8-dien-7-yl]acetamide], the negative logarithm of the EC50 (pEC50) in the series with recombinant NL4-3 virus was 10.51. Further, the cytotoxic concentration (CC50) at 4 day in series [1] was more than 500 nM.

Regarding `Cn1nc(NS(C)(=O)=O)c2c(Cl)ccc(-n3c([C@H](Cc4cc(F)cc(F)c4)NC(=O)Cn4nc(C(F)F)c5c4C(F)(F)[C@@H]4C[C@H]54)nc4nc(OCC5CC(F)(F)C5)ccc4c3=O)c21` (atropisomer, axis not shown; (P)) [Example 31, N-((S)-1-((3P)-3-(4-chloro-1-methyl-3-(methylsulfonamido)-1H-indazol-7-yl)-7-((3,3-difluorocyclobutyl)methoxy)-4-oxo-3,4-dihydropyrido[2,3-d]pyrimidin-2-yl)-2-(3,5-difluorophenyl)ethyl)-2-((3bS,4aR)-3-(difluoromethyl)-5,5-difluoro-3b,4,4a,5-tetrahydro-1H-cyclopropa[3,4]cyclopenta[1,2-c]pyrazol-1-yl)acetamide], the pEC50 in the series with recombinant NL4-3 virus is 10.46. In addition, the CC50 at 4 day in series [1] was more than 100 nM.

Turning to `Cn1nc(NS(C)(=O)=O)c2c(Cl)ccc(-n3c([C@H](Cc4cc(F)cc(F)c4)NC(=O)Cn4nc(C(F)F)c5c4C(F)(F)[C@@H]4C[C@H]54)nc4nc(OC5CCC(F)(F)CC5)ccc4c3=O)c21` (atropisomer, axis not shown; (P)) [Example 35, N-((S)-1-((3P)-3-(4-chloro-1-methyl-3-(methylsulfonamido)-1H-indazol-7-yl)-7-((4,4-difluorocyclohexyl)oxy)-4-oxo-3,4-dihydropyrido[2,3-d]pyrimidin-2-yl)-2-(3,5-difluorophenyl)ethyl)-2-((3bS,4aR)-3-(difluoromethyl)-5,5-difluoro-3b,4,4a,5-tetrahydro-1H-cyclopropa[3,4]cyclopenta[1,2-c]pyrazol-1-yl)acetamide], the pEC50 with recombinant NL4-3 virus was 10.27. In series [1], this compound showed a CC50 at 4 day of more than 100 nM.

For `Cn1nc(NS(C)(=O)=O)c2c(Cl)ccc(-n3c([C@H](Cc4cc(F)cc(F)c4)NC(=O)Cn4nc(C(F)F)c5c4C(F)(F)[C@@H]4C[C@H]54)nc4nc(Oc5ccc(F)cc5F)ccc4c3=O)c21` (atropisomer, axis not shown; (P)) [Example 36, N-((S)-1-((3P)-3-(4-chloro-1-methyl-3-(methylsulfonamido)-1H-indazol-7-yl)-7-(2,4-difluorophenoxy)-4-oxo-3,4-dihydropyrido[2,3-d]pyrimidin-2-yl)-2-(3,5-difluorophenyl)ethyl)-2-((3bS,4aR)-3-(difluoromethyl)-5,5-difluoro-3b,4,4a,5-tetrahydro-1H-cyclopropa[3,4]cyclopenta[1,2-c]pyrazol-1-yl)acetamide], the pEC50 with recombinant NL4-3 virus is 10.09. In series [1], this compound registered a CC50 at 4 day of more than 100 nM.

As for `Cn1nc(NS(C)(=O)=O)c2c(Cl)ccc(-n3c([C@H](Cc4cc(F)cc(F)c4)NC(=O)Cn4nc(C(F)F)c5c4C(F)(F)[C@@H]4C[C@H]54)nc4nc(Oc5ccccc5F)ccc4c3=O)c21` (atropisomer, axis not shown; (P)) [Example 37, N-((S)-1-((3P)-3-(4-chloro-1-methyl-3-(methylsulfonamido)-1H-indazol-7-yl)-7-(2-fluorophenoxy)-4-oxo-3,4-dihydropyrido[2,3-d]pyrimidin-2-yl)-2-(3,5-difluorophenyl)ethyl)-2-((3bS,4aR)-3-(difluoromethyl)-5,5-difluoro-3b,4,4a,5-tetrahydro-1H-cyclopropa[3,4]cyclopenta[1,2-c]pyrazol-1-yl)acetamide], in the series with recombinant NL4-3 virus, the pEC50 was 10.09. In series [1], the CC50 at 4 day is more than 100 nM.
